Data from publication PMC5040251, “The Structure of Treponema pallidum Tp0751 (Pallilysin) Reveals a Non-canonical Lipocalin Fold That Mediates Adhesion to Extracellular Matrix Components and Interactions with Host Cells” (PLoS Pathogens, 2016).
Ends that are not written are not given here.

Test system: HUVEC monolayers
Assay: Peptide competitive inhibition assay: stationary adhesion of Tp0751-expressing B. burgdorferi (Bb-Tp0751) to HUVEC monolayers
Type: cell-based, human
Conditions: for Effect on adhesion of Bb-Tp0751 to HUVEC monolayers: HUVECs on matrigel pre-incubated with 0.1 μg peptide per well for 3 h at 37°C, peptide removed, bacteria 12 h at 36°C, GFP bacteria counted in ten FOV, 400x, compared with scrambled peptide
Description: Fig 5 Tp0751 peptide 10 inhibits adhesion of Tp0751-expressing B. burgdorferi to HUVEC monolayers. (A) Schematic showing the experimental design of the competitive inhibition assay. Confluent HUVEC monolayers seeded on artificial basement membrane were preincubated with synthetic Tp0751 peptides (p4, p6, p10, p11, p4scr, p6scr, and p10scr1) to allow for peptide-endothelial cell interactions. HUVECs were then co-incubated with parent (negative control) or Tp0751-expressing B. burgdorferi strains to assess the competitive inhibition capacity of the synthetic Tp0751 peptides. After washing to remove non-adherent bacteria, B. burgdorferi adhesion to HUVECs was quantified using fluorescence microscopy to count the number of adherent bacteria per field of view (FOV) at 400x magnification. (B) Bar graph illustrating the number of adherent B. burgdorferi per FOV. Mean counts ± SEM from ten FOV for each biological replicate are presented with standard error bars. For statistical analyses, attachment by strain Bb-Tp0751 to HUVEC monolayers preincubated with peptides p4, p6, and p10 was compared to the attachment of strain Bb-Tp0751 in the presence of corresponding scrambled peptides, using the Student’s two-tailed t-test. […] The parent and Bb-Tp0751 strains are indicated by clear white bars and striped colored bars, respectively. […] Mean counts ± SEM from ten FOV for each biological replicate are presented with standard error bars. Statistical analysis, was performed using the Student’s two-tailed t-test.
Human umbilical vein endothelial cells (HUVECs) pooled from multiple donors and purchased from Lonza (Allendale, NJ) were cultured in endothelial growth medium-2 (EGM-2) (Lonza) at 37°C in an atmosphere of 5% CO2, as per manufacturer’s instructions. B. burgdorferi strains were cultivated at 36°C in an atmosphere of 1.5% CO2 in BSK-II medium prepared in-house with appropriate antibiotics (100 μg/mL gentamycin, 200 μg/mL kanamycin).
Stationary adhesion assays were adapted from Szczepanski and colleagues and Cameron and colleagues. HUVECs (passage 2–3) were seeded in 4-well chamber slides (Nalge Nunc International, Rochester, NY), coated with 500 μg/mL phenol red-free matrigel (Corning, Tewksbury, MA) and grown 20 h at 37°C in 5% CO2 to form confluent monolayers. Synthetic Tp0751 peptides (p4, p6, p10, p11, […], p4scr, p6scr, and p10scr1) were diluted to 500 μg/ml in HEPES buffered saline solution (Lonza) and HUVECs were pre-incubated with 0.1 μg of Tp0751 peptide per well for 3 h at 37°C in 5% CO2. Peptide solutions were removed from HUVECs prior to the addition of bacteria. Borrelia burgdorferi strains were cultured in biological triplicate, and two days prior to the experiment, B. burgdorferi cultures were passaged to 6x10^5 cells/ml and grown for 48 h to reach a concentration of 2x10^7 cells/ml. Borrelia burgdorferi cultures were then centrifuged and resuspended in a 3:1 mixture of BSK-II:EGM-2 and 1.4x10^7 cells of each biological replicate were added to HUVECs in duplicate wells. […] Quantitation of B. burgdorferi adhesion to HUVECs was performed by counting GFP-expressing bacteria in ten fields of view (FOV) from duplicate wells for each biological replicate under 400X magnification on a Nikon 80i fluorescence microscope (Meridian Instrument Company, Inc., Kent, WA) fitted with a monochrome digital camera, a dark-field condenser, and fluorescein filter (Excelitas Technologies, Mississauga, ON). […]

Row | Sequence | Effect on adhesion of Bb-Tp0751 to HUVEC monolayers | Peptide concentration giving statistically significant lower binding of Bb-Tp0751 to HUVEC monolayers compared with p8 (preincubation with 0-545 nM peptide, Student's two-tailed t-test, p≤0.005) [nM]
1 | HHHHHHGGAAQTHTQPPVQTAMRIALWNRA [p4] | did not alter adhesion | –
2 | HHHHHHQGALQHLLAGLWIQTEISPNSGDI [p6] | did not alter adhesion | –
3 | HHHHHHRKTVSFLTRNTAISSIRRRLEVTF [p10] | significantly reduced binding | ≥ 5.45
4 | HHHHHHSIRRRLEVTFESHEVIHVRAVEDV [p11] | did not alter adhesion | –
